These are literature values, as cited in patent publication US6458376B1, “Nonaqueous fluorinated drug delivery suspensions” (Allergan, Inc., priority 1990, dated 2002).

Structures are written as SMILES.

The conditions of series [1]: for Boiling point: ambient pressure.
The conditions of series [2]: systemically administered.

With `FC1(F)C(F)(F)C(F)(F)C2(F)C(F)(C1(F)F)C(F)(F)C(F)(F)C1(F)C(F)(F)C(F)(F)C(F)(F)C(F)(F)C12F` (centres unmarked) [PPP, perfluoroperhydrophenanthrene], in series [1], the “Density @ 25° C.” value is recorded as 2.016 gms/mL, the “Kin. viscosity @ 25° C.” value is 8.0 cst, the “Specific heat @ 25° C.” value is 0.27 g-cal/gm and the “Surface tension @ 25° C.” value was 21.6 dynes/cm. For the same compound, in series [1], the Boiling point was 215 °C. In series [2], the “elimination half-life (in words)” value is reported as “quite rapid”.
Take `O` [Water, reference compound]: in series [1], the “Density @ 25° C.” value was 1.000 gms/mL, the “Kin. viscosity @ 25° C.” value is listed as 1.00 cst, the “Specific heat @ 25° C.” value is given as 1.00 g-cal/gm and the “Surface tension @ 25° C.” value is 72.0 dynes/cm.
In the case of `FC1(F)C(F)(F)C(F)(F)C2(F)C(F)(F)C(F)(F)C(F)(F)C(F)(F)C2(F)C1(F)F` (centres unmarked) [PFD, Perfluoro(decahydronaphthalene)], in series [1], the “Density @ 25° C.” value was 1.929 gms/mL, the “Kin. viscosity @ 25° C.” value is 2.9 cst, the “Specific heat @ 25° C.” value was 0.22 g-cal/gm and the “Surface tension @ 25° C.” value was 19.3 dynes/cm. Further, the Boiling point in series [1] is 142 °C. In series [2], the elimination half life entry is reported as “about 7 days” and the “elimination half-life (in words)” value is recorded as “quite rapid”.
